Experimental data taken from patent US20260250290A1 (BRISTOL-MYERS SQUIBB COMPANY, priority 2023, published 2026).
Counter-ions that a name gives are not always drawn.

Biological target: T1, full length SGK1 (Homo sapiens, UniProt O00141)
T1 construct: 125 μM full length SGK1 (Life Technologies Part #PR7358A); purchased Life Technologies PR7358A
T1 sequence (O00141 1-431): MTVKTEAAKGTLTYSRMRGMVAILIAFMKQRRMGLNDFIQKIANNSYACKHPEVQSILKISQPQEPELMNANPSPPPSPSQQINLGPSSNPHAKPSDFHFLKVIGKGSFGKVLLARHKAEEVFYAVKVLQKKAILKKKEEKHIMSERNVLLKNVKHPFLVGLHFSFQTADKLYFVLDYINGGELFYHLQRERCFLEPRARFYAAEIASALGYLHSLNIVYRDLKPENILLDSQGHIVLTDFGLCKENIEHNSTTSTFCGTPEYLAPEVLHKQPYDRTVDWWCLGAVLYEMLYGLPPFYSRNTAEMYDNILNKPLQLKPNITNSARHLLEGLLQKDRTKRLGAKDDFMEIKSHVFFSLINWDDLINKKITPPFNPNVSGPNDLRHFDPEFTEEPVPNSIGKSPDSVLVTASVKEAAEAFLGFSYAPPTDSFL
Assay: SGK1 inhibition Assay A (Caliper LabChip electrophoretic separation of fluorescent peptide substrate and phosphorylated product)
Assay type: biochemical
Conditions: Assay A; 20 μM ATP, 40 min incubation; read-out: SGK1 IC50

Compound	IC50 [µM]
CC(=O)N1CC=C(c2cc(N3CCC[C@@H](NC(=O)c4ccc(S(C)(=O)=O)cc4)C3)c3c(N)ncnn23)C1 [Example 468, (R)-N-(1-(7-(1-acetyl-2,5-dihydro-1H-pyrrol-3-yl)-4-aminopyrrolo[2,1-f][1,2,4]triazin-5-yl)piperidin-3-yl)-4-(methylsulfonyl)benzamide]	0.026
COCCOc1cc(Cl)sc1C(=O)N[C@@H]1CCCN(c2cc(-c3ccc(C(N)=O)c(F)c3)n3ncnc(N)c23)C1 [Example 162, (R)-N-(1-(4-amino-7-(4-carbamoyl-3-fluorophenyl)pyrrolo [2,1-f][1,2,4]triazin-5-yl)piperidin-3-yl)-5-chloro-3-(2-methoxyethoxy) thiophene-2-carboxamide]	0.005
CC(=O)N1CC=C(c2cc(N3CCC[C@@H](NC(=O)c4cccc(N5CCNC(C)(C)C5)n4)C3)c3c(N)ncnn23)C1 [Example 773, (R)-N-(1-(7-(1-acetyl-2,5-dihydro-1H-pyrrol-3-yl)-4-aminopyrrolo[2,1-f][1,2,4]triazin-5-yl)piperidin-3-yl)-6-(3,3-dimethylpiperazin-1-yl)picolinamide]	0.001
CC(=O)N1CC=C(c2cc(N3CCC[C@@H](NC(=O)c4cccc(NC5CC(=O)N(C)C5)n4)C3)c3c(N)ncnn23)C1 (stereo partly drawn) [Example 768, N-((R)-1-(7-(1-acetyl-2,5-dihydro-1H-pyrrol-3-yl)-4-aminopyrrolo[2,1-f][1,2,4]triazin-5-yl)piperidin-3-yl)-6-((1-methyl-5-oxopyrrolidin-3-yl)amino)picolinamide]	0.046
COCCOc1cc(Cl)sc1C(=O)N[C@@H]1CCCN(c2cc(C3=CCN(S(C)(=O)=O)C3)n3ncnc(N)c23)C1 [Example 140, (R)—N-(1-(4-amino-7-(1-(methylsulfonyl)-2,5-dihydro-1H-pyrrol-3-yl)pyrrolo[2,1-f][1,2,4]triazin-5-yl)piperidin-3-yl)-5-chloro-3-(2-methoxyethoxy)thiophene-2-carboxamide]	0.006
CC(=O)N1CC=C(c2cc(N3CCC[C@@H](NC(=O)c4ccn(C)n4)C3)c3c(N)ncnn23)C1 [Example 738, (R)-N-(1-(7-(1-acetyl-2,5-dihydro-1H-pyrrol-3-yl)-4-aminopyrrolo[2,1-f][1,2,4]triazin-5-yl)piperidin-3-yl)-1-methyl-1H-pyrazole-3-carboxamide]	0.115
COC(=O)NCCOc1cc(C(F)F)sc1C(=O)N[C@@H]1CCCN(c2cc(C3=CCN(C(=O)OC)C3)n3ncnc(N)c23)C1 [Example 428, Methyl (R)-3-(4-amino-5-(3-(5-(difluoromethyl)-3-(2-((methoxycarbonyl)amino)ethoxy)thiophene-2-carboxamido)piperidin-1-yl)pyrrolo[2,1-f][1,2,4]triazin-7-yl)-2,5-dihydro-1H-pyrrole-1-carboxylate]	0.021
CC(=O)N1CC=C(c2cc(N3CCC[C@@H](NC(=O)c4sc(C(F)F)cc4N4CCOCC4)C3)c3c(N)ncnn23)C1 [Example 319, (R)-N-(1-(7-(1-acetyl-2,5-dihydro-1H-pyrrol-3-yl)-4-aminopyrrolo[2,1-f][1,2,4]triazin-5-yl)piperidin-3-yl)-5-(difluoromethyl)-3-morpholinothiophene-2-carboxamide]	0.011
CN(C)CCOc1cc(Cl)sc1C(=O)N[C@@H]1CCCN(c2cc(C3=CCN(C(=O)c4cnco4)C3)n3ncnc(N)c23)C1 [Example 907, (R)-N-(1-(4-amino-7-(1-(oxazole-5-carbonyl)-2,5-dihydro-1H-pyrrol-3-yl)pyrrolo[2,1-f][1,2,4]triazin-5-yI)piperidin~3-y1)-5-chloro-3-(2-(dimethylamino)ethoxy)thiophene-2-carboxamide]	0.004
CC(O)c1cccc(-c2cc(N3CCC[C@@H](NC(=O)c4ccc(Cl)s4)C3)c3c(N)ncnn23)c1 (stereo partly drawn) [Example 240, N-[(3R)-1-{4-amino-7-[3-(1-hydroxyethyl)phenyl]pyrrolo[2,1-f][1,2,4]triazin-5-yl}piperidin-3-yl]-5-chlorothiophene-2-carboxamide]	0.014
CS(=O)(=O)c1ccc(-c2cc(N3CCC[C@@H](NC(=O)c4cccc(Cl)c4)C3)c3c(N)ncnn23)cc1 [Example 21, (R)-N-(1-(4-amino-7-(4-(methylsulfonyl)phenyl)pyrrolo[2,1-f][1,2,4]triazin-5-yl)piperidin-3-yl)-3-chlorobenzamide]	0.013

More lines, in order of falling IC50, values ahead:

IC50 [µM]	Compound
0.494	CC(=O)N1CC=C(c2cc(N3CCC[C@@H](NC(=O)c4nccn4C)C3)c3c(N)ncnn23)C1 [Example 708]
0.237	CN1CCN(c2cccc(C(=O)N[C@@H]3CCCN(c4cc(-c5ccn(C)c(=O)c5)n5ncnc(N)c45)C3)n2)CC1 [Example 802, (R)-N-(1-(4-amino-7-(1-methyl-2-oxo-1,2-dihydropyridin-4-yl)pyrrolo[2,1-f][1,2,4]triazin-5-yl)piperidin-3-yl)-6-(4-methylpiperazin-1-yl)picolinamide]
0.117	CC(=O)N1CC=C(c2cc(N3CCC[C@@H](NC(=O)c4sc5ccc(C#N)cc5c4OC4CCN(C(=O)OC(C)(C)C)CC4)C3)c3c(N)ncnn23)C1 [Example 676, tert-butyl (R)-4-((2-((1-(7-(1-acetyl-2,5-dihydro-1H-pyrrol-3-yl)-4-aminopyrrolo[2,1-f][1,2,4]triazin-5-yl)piperidin-3-yl)carbamoyl)-5-cyanobenzo[b]thiophen-3-yl)oxy)piperidine-1-carboxylate]
0.025	CS(=O)(=O)c1ccc(-c2cc(N3CCC[C@@H](NC(=O)c4cc(Cl)no4)C3)c3c(N)ncnn23)cc1 [Example 74, (R)-N-(1-(4-amino-7-(4-(methylsulfonyl)phenyl)pyrrolo[2,1-f][1,2,4]triazin-5-yl)piperidin-3-yl)-3-chloroisoxazole-5-carboxamide, TFA]
0.021	CN(C)CCOc1cc(C2CC2)sc1C(=O)N[C@@H]1CCCN(c2cc(-c3ccc(=O)n(CC(F)F)c3)n3ncnc(N)c23)C1 [Example 375, (R)-N-(1-(4-amino-7-(1-(2,2-difluoroethyl)-6-oxo-1,6-dihydropyridin-3-yl)pyrrolo[2,1-f] [1,2,4]triazin-5-yl)piperidin-3-yl)-5-cyclopropyl-3-(2-(dimethylamino)ethoxy)thiophene-2-carboxamide]
0.021	CC(=O)N1CC=C(c2cc(N3CCC[C@@H](NC(=O)c4cccc(N5CCN(C)CC5)c4)C3)c3c(N)ncnn23)C1 [Example 735, (R)-N-(1-(7-(1-acetyl-2,5-dihydro-1H-pyrrol-3-yl)-4-aminopyrrolo[2,1-f][1,2,4]triazin-5-yl)piperidin-3-yl)-3-(4-methylpiperazin-1-yl)benzamide]
0.02	CC(=O)N1CC=C(c2cc(N3CCC[C@@H](NC(=O)c4cccc(N5CC6(CN(C)C6)C5)n4)C3)c3c(N)ncnn23)C1 [Example 784, (R)-N-(1-(7-(1-acetyl-2,5-dihydro-1H-pyrrol-3-yl)-4-aminopyrrolo[2,1-f][1,2,4]triazin-5-yl)piperidin-3-yl)-6-(6-methyl-2,6-diazaspiro[3.3]heptan-2-yl)picolinamide]
0.013	CS(=O)(=O)c1ccc(-c2cc(N3CCC[C@@H](NC(=O)c4cccc(-c5cnco5)c4)C3)c3c(N)ncnn23)cc1 [Example 51, (R)-N-(1-(4-amino-7-(4-(methylsulfonyl)phenyl)pyrrolo[2,1-f][1,2,4]triazin-5-yl)piperidin-3-yl)-3-(oxazol-5-yl)benzamide]
0.012	N#CC1(C(=O)N2CC=C(c3cc(N4CCC[C@@H](NC(=O)c5sc(Cl)cc5OCCN5CCOCC5)C4)c4c(N)ncnn34)C2)CC1 [Example 264, (R)-N-(1-(4-amino-7-(1-(1-cyanocyclopropane-1-carbonyl)-2,5-dihydro-1H-pyrrol-3-yl)pyrrolo[2,1-f][1,2,4]triazin-5-yl)piperidin-3-yl)-5-chloro-3-(2-morpholinoethoxy)thiophene-2-carboxamide]
0.009	CN(C)C(=O)COc1cc(Cl)sc1C(=O)N[C@@H]1CCCN(c2cc(-c3ccnc(C(F)F)c3)n3ncnc(N)c23)C1 [Example 339, (R)—N-(1-(4-amino-7-(2-(difluoromethyl)pyridin-4-yl)pyrrolo[2,1-f][1,2,4]triazin-5-yl)piperidin-3-yl)-5-chloro-3-(2-(dimethylamino)-2-oxoethoxy)thiophene-2-carboxamide]
0.008	CC(=O)N1CC=C(c2cc(N3CCCC(NC(=O)c4sc(Cl)cc4OCC4CCNC4)C3)c3c(N)ncnn23)C1 (single isomer, unassigned) [Example 638]
0.005	CS(=O)(=O)c1ccc(-c2cc(N3CCC[C@@H](NC(=O)c4ccns4)C3)c3c(N)ncnn23)cc1 [Example 41, (R)-N-(1-(4-amino-7-(4-(methylsulfonyl)phenyl)pyrrolo[2,1-f][1,2,4]triazin-5-yl)piperidin-3-yl)isothiazole-5-carboxamide, TFA]
0.004	CS(=O)(=O)N1CC=C(c2cc(N3CCC[C@@H](NC(=O)c4ccns4)C3)c3c(N)ncnn23)C1 [Example 112, (R)—N-(1-(4-amino-7-(1-(methylsulfonyl)-2,5-dihydro-1H-pyrrol-3-yl)pyrrolo[2,1-f][1,2,4]triazin-5-yl)piperidin-3-yl)isothiazole-5-carboxamide, TFA]
0.001	N#Cc1ccc(-c2cc(N3CCC[C@@H](NC(=O)c4sc(Cl)cc4OC4CC5(CNC5)C4)C3)c3c(N)ncnn23)cn1 [Example 591]
